Reference: patent US9295258B2, “Synergistic pesticidal compositions and related methods” (DOW AGROSCIENCES LLC, priority 2013, dated 2016)

Key:
[1] = system: Cotton Aphid, Aphis gossypii (Glover); test: Cotton aphid percent control on treated cotton plants (track sprayer), synergy by Colby's equation; format: in vivo; settings: cotton plants at cotyledon stage
From the text: (§1) The method described in Colby S. R., “Calculating Synergistic and Antagonistic Responses of Herbicide Combinations,” Weeds, 1967, 15, 20-22 was used to determine an existence of synergic effect between the ecdysone receptor agonist compound and the pesticide in the formulated pesticidal composition. In this method, the percent insect control of the formulated pesticidal composition as observed in the study was compared to the “expected” percent control (E) as calculated by equation (1) (hereinafter “Colby's equation”) below: […]
(§2) X is the percentage of control with the first pesticide at a given rate (p),
(§3) Y is the percentage of control with the second pesticide at a given rate (q), and
E is the expected control by the first and second pesticide at a rate of p+q. […]
Cotton plants at cotyledon stage were treated with different active compounds using track sprayer. […] The percent control of the pesticidal composition against cotton aphid, Aphis gossypii (Glover), was determined as the “Observed” action, and compared to those obtained by using about 0.002 weight % of compound II, and using about 0.005 weight % of methoxyfenozide alone. The “Colby's Expected Action” was calculated using Colby's equation as discussed previously.

[2] = system: Diamondback Moth, Plutella xylostella; test: Diamondback moth percent control on treated cabbage leaf discs (track sprayer), synergy by Colby's equation; format: in vivo
From the text: as §1, §2, §3
E is the expected control by the first and second pesticide at a rate of p+q.
Bioassays were performed for different active compounds. […] The “Colby's Expected Action” was calculated using Colby's equation as discussed previously.
(§4) Bioassays were performed for different active compounds. […] The “Colby's Expected Action” was calculated using Colby's equation as discussed previously. […]
as §4

SMILES: CCN(C(=O)CC[S+]([O-])CCC(F)(F)F)c1cn(-c2cccnc2)nc1Cl (stereo not shown) [Compound II, N-(3-chloro-1-(pyridin-3-yl)-1H-pyrazol-4-yl)-N-ethyl-3-((3,3,3-trifluoropropyl)sulfinyl)propanamide]
- % Control Three Days After Treatment ([1]; Compound II alone, dose rate 0.002 weight %): 28%

SMILES: CCN(C(=O)CCSCCC(F)(F)F)c1cn(-c2cccnc2)nc1Cl [Compound I, N-(3-chloro-1-(pyridin-3-yl)-1H-pyrazol-4-yl)-N-ethyl-3-((3,3,3-trifluoropropyl)thio)propanamide]
- Average % Control Five Days After Treatment ([2]; Compound I alone (1:0), average of 0.0025, 0.000625 and 0.0001531 weight %): 7.58%

SMILES: COc1cccc(C(=O)NN(C(=O)c2cc(C)cc(C)c2)C(C)(C)C)c1C [Methoxyfenozide, 3-methoxy-2-methylbenzoic acid 2-(3,5-dimethylbenzoyl)-2-(1,1-dimethylethyl)hydrazide]
- % Control Three Days After Treatment ([1]; Methoxyfenozide alone, dose rate 0.005 weight %): 23%
- Average % Control Five Days After Treatment ([2]; Methoxyfenozide alone (0:1), average of 0.02, 0.005, 0.00125 and 0.0003125 weight %): 15.9%
